For assay [1], the target named is T1, Peroxisome proliferator-activated receptor gamma (Homo sapiens) (UniProt P37231).
T1 sequence (whole entry): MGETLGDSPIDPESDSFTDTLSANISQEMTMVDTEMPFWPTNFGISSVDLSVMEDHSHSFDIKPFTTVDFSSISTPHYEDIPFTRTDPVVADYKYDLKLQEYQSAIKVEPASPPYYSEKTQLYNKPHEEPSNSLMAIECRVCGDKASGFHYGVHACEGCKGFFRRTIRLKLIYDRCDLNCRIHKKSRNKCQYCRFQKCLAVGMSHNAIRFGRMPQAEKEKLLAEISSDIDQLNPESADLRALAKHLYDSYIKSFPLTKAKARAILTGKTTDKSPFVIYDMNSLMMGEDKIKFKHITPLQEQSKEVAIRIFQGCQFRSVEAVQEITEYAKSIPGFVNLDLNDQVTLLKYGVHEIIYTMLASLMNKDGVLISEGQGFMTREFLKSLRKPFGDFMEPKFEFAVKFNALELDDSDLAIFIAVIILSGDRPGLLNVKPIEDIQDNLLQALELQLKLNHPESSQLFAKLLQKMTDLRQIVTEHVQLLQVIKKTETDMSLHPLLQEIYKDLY
Briefly: Agonist activity at PPARgamma in human HepG2 cells with THRB knockdown assessed as induction of CD36 mRNA expression incubated for 8 hrs by qPCR analysis. The format is cell-based. (In general: Quantitative PCR measures a nucleic acid by following its amplification.)

In assay [2] the target is T2, Retinoic acid receptor RXR-alpha (Homo sapiens, UniProt P19793).
T2 sequence (P19793 whole entry): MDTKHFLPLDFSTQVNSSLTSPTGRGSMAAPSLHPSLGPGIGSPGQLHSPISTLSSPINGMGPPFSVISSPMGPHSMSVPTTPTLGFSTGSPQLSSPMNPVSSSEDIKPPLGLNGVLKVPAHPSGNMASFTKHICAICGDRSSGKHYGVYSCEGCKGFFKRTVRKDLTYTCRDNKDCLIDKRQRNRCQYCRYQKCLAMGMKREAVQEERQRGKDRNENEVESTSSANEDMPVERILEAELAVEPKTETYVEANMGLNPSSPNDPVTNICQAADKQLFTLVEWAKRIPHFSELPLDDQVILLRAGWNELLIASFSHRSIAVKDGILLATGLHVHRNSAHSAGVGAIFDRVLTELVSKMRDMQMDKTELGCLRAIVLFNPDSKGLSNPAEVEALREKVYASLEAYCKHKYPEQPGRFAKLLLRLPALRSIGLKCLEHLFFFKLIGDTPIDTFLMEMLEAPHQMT
Briefly: Binding affinity to RXRalpha LBD (unknown origin) by isothermal titration calorimetry. A general note: In ITC the heat of successive injections is recorded.

For assay [3], the target named is T3, Peroxisome proliferator-activated receptor gamma (Homo sapiens, UniProt P37231).
T3 sequence (P37231 whole entry): T1 sequence (whole entry)
The experiment in a line: Agonist activity at recombinant human pFA-CMV fused PPARgamma expressed in HEK293T cells transfected with pFR-luciferase plasmid and pRL-SV40 plasmid incubated for 14 to 16 hrs by dual glo luciferase reporter gene assay. The assay is classed as cell-based, HEK-293T.

For assay [4], the target named is T1, Peroxisome proliferator-activated receptor gamma (Homo sapiens). The experiment in a line: Agonist activity at PPARgamma in human HepG2 cells with THRA knockdown assessed as induction of CD36 mRNA expression incubated for 8 hrs by qPCR analysis. The format is cell-based.
In assay [5] the target is T4, Retinoic acid receptor RXR-alpha (Homo sapiens) (UniProt P19793).
T4 sequence (whole entry): T2 sequence (P19793 whole entry)
The experiment in a line: Agonist activity at recombinant human pFA-CMV fused RXRalpha LBD expressed in HEK293T cells transfected with pFR-luciferase plasmid and pRL-SV40 plasmid incubated for 14 to 16 hrs by dual glo luciferase reporter gene assay relative to control. The following applies: HEK-293T. The assay is classed as cell-based. In general terms: Reporter assays use an easily measured gene product as a stand-in for the process of interest.

Assay [6] has as its target T2, Retinoic acid receptor RXR-alpha. Briefly: Agonist activity at recombinant human pFA-CMV fused RXRalpha LBD expressed in HEK293T cells transfected with pFR-luciferase plasmid and pRL-SV40 plasmid incubated for 14 to 16 hrs by dual glo luciferase reporter gene assay. The following applies: read-out: EC50. The assay is classed as cell-based, HEK-293T.
Assay [7] concerns the target T5, Retinoic acid receptor RXR-beta (Homo sapiens) (UniProt P28702).
T5 sequence (whole entry): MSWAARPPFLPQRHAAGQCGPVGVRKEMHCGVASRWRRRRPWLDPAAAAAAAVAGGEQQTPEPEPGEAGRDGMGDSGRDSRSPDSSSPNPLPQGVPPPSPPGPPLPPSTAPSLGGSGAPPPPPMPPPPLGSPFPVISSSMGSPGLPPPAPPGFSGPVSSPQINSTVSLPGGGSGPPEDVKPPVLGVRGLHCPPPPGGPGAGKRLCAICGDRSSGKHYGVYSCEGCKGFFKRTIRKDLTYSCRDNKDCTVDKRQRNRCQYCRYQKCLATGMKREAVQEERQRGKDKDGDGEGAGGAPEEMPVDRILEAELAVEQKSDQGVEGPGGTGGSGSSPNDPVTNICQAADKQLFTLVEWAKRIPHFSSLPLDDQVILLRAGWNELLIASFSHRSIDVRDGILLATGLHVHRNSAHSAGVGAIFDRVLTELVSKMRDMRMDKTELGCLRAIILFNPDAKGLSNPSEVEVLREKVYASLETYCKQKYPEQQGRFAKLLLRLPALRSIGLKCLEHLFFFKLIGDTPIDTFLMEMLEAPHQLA
The experiment in a line: Agonist activity at recombinant human pFA-CMV fused RXRbeta LBD expressed in HEK293T cells transfected with pFR-luciferase plasmid and pRL-SV40 plasmid at 10 uM incubated for 14 to 16 hrs by dual glo luciferase reporter gene assay. The assay is classed as cell-based. The following applies: HEK-293T.

Assay [8] addresses T4, Retinoic acid receptor RXR-alpha (Homo sapiens). The experiment in a line: Agonist activity at recombinant human pFA-CMV fused RXRalpha LBD expressed in HEK293T cells transfected with pFR-luciferase plasmid and pRL-SV40 plasmid at 10 uM incubated for 14 to 16 hrs by dual glo luciferase reporter gene assay. The format is cell-based. The following applies: HEK-293T.
Assay [9] concerns the target T3, Peroxisome proliferator-activated receptor gamma. Briefly: Binding affinity to recombinant PPARgamma LBD (unknown origin) by isothermal titration calorimetry.
Assay [10] concerns the target T6, Retinoic acid receptor RXR-gamma (Homo sapiens) (UniProt P48443).
T6 sequence (whole entry): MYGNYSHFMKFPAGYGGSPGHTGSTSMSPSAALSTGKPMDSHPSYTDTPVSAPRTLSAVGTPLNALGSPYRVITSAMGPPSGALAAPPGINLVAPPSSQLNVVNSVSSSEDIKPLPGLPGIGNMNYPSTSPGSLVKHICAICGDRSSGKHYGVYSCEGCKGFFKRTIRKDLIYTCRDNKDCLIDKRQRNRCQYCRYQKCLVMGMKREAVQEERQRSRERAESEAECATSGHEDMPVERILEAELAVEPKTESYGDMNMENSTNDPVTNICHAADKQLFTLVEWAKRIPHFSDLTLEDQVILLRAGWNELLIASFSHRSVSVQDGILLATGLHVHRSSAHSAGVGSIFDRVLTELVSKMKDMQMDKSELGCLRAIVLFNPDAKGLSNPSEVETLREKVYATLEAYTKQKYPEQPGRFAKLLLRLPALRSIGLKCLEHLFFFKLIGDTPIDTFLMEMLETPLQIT
The experiment in a line: Agonist activity at recombinant human pFA-CMV fused RXRgamma LBD expressed in HEK293T cells transfected with pFR-luciferase plasmid and pRL-SV40 plasmid at 10 uM incubated for 14 to 16 hrs by dual glo luciferase reporter gene assay. The format is cell-based. The following applies: HEK-293T.

Calls of active or inactive are those of the source. The rule behind the calls is not given here.

What is called Kd is a measure of binding affinity in units of concentration. For orientation: EC50 means the concentration at which the effect is half-maximal.

`N[C@@H](Cc1cc(I)c(Oc2cc(I)c(O)c(I)c2)c(I)c1)C(=O)O` [LEVOTHYROXINE]: the Activity result in [1] and in assay [4] was “Dose-dependent effect” each time. For the same compound, the results for the Kd in assay [2] and in assay [9] were 930 nM and 400 nM, respectively. Further, the EC50 was determined as 12000 nM in assay [3] and 15400 nM in assay [6]. Further, the fold change (FC) in assay [5] was 7.4. For the same compound, the result in assay [7], in assay [8] and in assay [10] was Active.

As to `O=C(O)Cc1cc(I)c(Oc2cc(I)c(O)c(I)c2)c(I)c1` [TETRAC], the Activity entry in assay [1] and in assay [4] was “Dose-dependent effect” throughout. The values for the Kd in assay [2] and in [9] were 1500 nM and 110 nM, respectively. The EC50 in assay [3] turned out to be 100 nM; in assay [6] it was 1320 nM. Also, the fold change (FC) in assay [5] was determined as 9.1. Besides, the outcome in assay [7], in assay [8] and in assay [10] was Active.

Source of the values: ChEMBL document CHEMBL4627384, “l-Thyroxin and the Nonclassical Thyroid Hormone TETRAC Are Potent Activators of PPARγ” (J Med Chem, 2020).
